Holding throughout (format): cell-based, human
One experiment deals with KG1 cells. In words: Induction of apoptosis in tumor cells (microscopy, flow cytometry). The conditions noted are these: for Speed of apoptosis induction: scored after 6, 12, 24, 48 and 72 hours. As for the experimental part: Microscopy: Nuclear morphology of the cells was analyzed with the fluorochromes Hoechst 33342 (λEx max 346 nm; λEm max 460 nm) (Sigma) prepared in phosphate-buffered saline (PBS at 0.1 mg/ml, added to the culture medium at a final concentration of 2 μg/ml and ethidium homodimer (EB) (λEx max 540 nm; λEm max 625 nm) (Sigma) prepared in PBS at 100 μg/ml and added to the culture medium at a final concentration of 2 μg/ml (Lizard, 1995). Hundred cells were counted for each sample and percentage of apoptosis was determined.
TdT-mediated dUTP nick end labeling (TUNEL): Control and novel compound-treated cell cultures were washed with PBS and fixed in 1% buffered formaldehyde (pH 7.4) for 15 minutes on ice. After washing in PBS, cells were permeabilized in 70% cold (−20° C.) ethanol and transferred to 4° C. for at least 1 hour. After rehydratation in PBS, cells were labeled with 50 μl/well TUNEL reaction mixture (Boehringer Mannheim). Cells were incubated in this solution at 37° C. for 40 minutes, washed in PBS and resuspended in 500 μl PBS containing 5 μg/ml EB and 0.1% RNAse. After 30 minutes of incubation at 4° C., green (FITC-dUTP) and red (EB-DNA) fluorescence of individual cells was measured on a FACscan flow cytometer (Gorczyca, 1993). Negative control (fixed and permeabilized cells incubated with 50 μl label solution per well without terminal transferase, instead of TUNEL reaction mixture) and positive control (fixed and permeabilized cells incubated with DNase I (100 μg/ml) that induces DNA strand breaks) were included in each experimental set-up.
Viable, apoptotic, necrotic (=primary necrosis, not following apoptosis) and secondarily necrotic cells (=late apoptosis, evolving to necrosis) were scored differentially after 6, 12, 24, 48 and 72 hours of exposure to novel compounds. For the three products a different apoptosis-inducing pattern could be observed. Apoptosis induction occurs fast after incubation with 172 and 201 but slower after incubation with 98.
After 6 and 12 hours of incubation the apoptotic population seems mainly to evolve from S phase. […]
(In general: A flow cytometer gives signals particle by particle.)

Experiment [1] deals with myeloid leukemia KG1 cell line. In words: Cell proliferation of KG1, flow cytometric cell count. The conditions noted are these: for Recovery of cell number after wash-out: washed free after 6 hours of exposure, 7 days drug-free medium. As for the experimental part: Cell lines: Human leukemic cell lines were obtained from the American Type Culture Collection (ATCC, Rockville, Md., USA). They were cultured in Iscove's Modified Dulbecco's Medium (IMDM) supplemented with 10% heat inactivated fetal calf serum (FCS), 200 U/ml penicillin, 200 μg/ml streptomycin and 1 μg/ml amphotericin B. Cells were cultured in a 5% CO2-95% air fully humidified incubator. For effects on clonogenic output, 1000 cells/well were plated in duplicate in methylcellulose (0.9%), supplemented with 20% FCS for 14 days.
Cells were plated at 10000 per well in 200 μl IMDM medium and incubated with 0-50 μM of the novel compounds (Tab 8), by addition of drug directly to the culture medium and incubated at 37° C. for 96 hours (Tab 8). Absolute cell number was determined by addition of a known concentration Fluoresbrite microspheres (FITC) (Polysciences, Inc.). The absolute number of cells/well was calculated as: {(total number of beads added/well)/(number of beads measured)×(number of measured cells in the gate of interest)}. All analyses were performed with a FACScan (BD), using CELLQuest software (Becton Dickinson).
Response of the myeloid leukemia KG1 and T-lymphocyte leukemia Molt3 cell lines to the cytostatic effect of the novel compounds was determined using the above-mentioned standardized bead suspension that was used to determine the absolute cell number by flow cytometric (FCM) measurement. Cells were grown in the presence of increasing concentration of the novel compounds.
To determine reversibility of the effects of the novel compounds, cells were plated at 10000 per well and exposed to 0-50 μM of the compounds for the time indicated, followed by washing in phosphate-buffered saline (PBS) (Life Technologies) and reseeded into drug-free medium for 7 additional days. An identical set of cells was plated and exposed to the drugs for 7 additional days. After 7 days (168 hours), the relative cell number was assayed by flow cytometry.

The test system of experiment [2] is adult bone marrow CD34+CD38− cells. Kind of experiment: Pre-CFU assay. The conditions noted are these: for IC50: 14-day liquid culture, secondary methylcellulose culture. An excerpt: Adult Bone Marrow Cells (ABM): Bone marrow samples were obtained by sternal puncture from hematologically normal donors undergoing cardiac surgery, after obtaining informed consent according to the ethical regulations of the University of Antwerp. Cells were collected in IMDM supplemented with 10% FCS and 100 U/ml heparin and separated by density gradient as mentioned for PBMC. After washing, cells were resuspended in IMDM 10% FCS and were sorted on a FACStar (Becton Dickinson, Erembodegem, Belgium).
Cell sorting: ABM cells (10^7 cells/ml) were incubated with 43A1 hybridoma supernatant at a 1/10 dilution for 20 minutes at 4° C. The supernatant of the 43A1 hybridoma (immunoglobulin IgG3) was kindly donated by Dr. H. J. Bühring (University of Tübingen, Germany) and was used as a source of anti-CD34 antibodies. After washing twice in IMDM, the cells were incubated with FITC-conjugated rabbit anti-mouse IgG (1/40 dilution) for 20 min at 4° C. After washing twice cells were incubated for 10 minutes with 5 μg mouse Ig and for 15 minutes with anti-CD38-PE (20 μl/10^6 cells). After washing twice in IMDM, the cells were sorted on a FACStarPlus cell sorter equipped with an water-cooled argon ion laser (INNOVA Enterprise Ion Laser) with multiple wave length outputs including UV (488 nm). Cells with low-to-medium forward and low side scatter, highly positive green (CD34) fluorescence, and an orange (CD38) fluorescence signal lower than the mean fluorescence of cells labeled with an irrelevant isotype-matched control antibody were retained as CD34^+CD38^− cells; cells with an orange fluorescence above this threshold were retained as CD34^+CD38^+ cells.
Pre-CFU: Pre-CFU assays were initiated by performing liquid cultures of CD34^+CD38^− in duplicate in 96-well flat-bottomed plates in IMDM/10% FCS, 1% bovine serum albumin (BSA), and different combinations of the following cytokines: 100 U/ml IL-1, 200 U/ml IL-6, 30 U/ml IL-3 and 100 ng/ml stel cell factor (SCF). Pre-CFU cultures were initiated with 500 CD34^+CD38^− cells/well (200 μl). After 14 days of culture at 37° C. in 7.5% O2 and 5% CO2 in a fully humidified incubator, the number of cells in each well was counted. Following this the cells were harvested, washed three times in IMDM/10% FCS, and plated in duplicate at 500 cells/well (1000 μl) in secondary methylcellulose CFU cultures as described for CFU assays.
Pre-CFU were cultured starting from adult bone marrow CD34^+CD38^− cells, that had been isolated using the FCM cell sorter. Novel compounds were added at different concentrations to the primary 14-day liquid culture. IC50 was calculated from dose-response curves from total clonogenic output after secondary methylcellulose culture (Tab. 8).

[3] abbreviates: continuous exposure, 7 days (168 hours), read-out: IC50, KG1 cells exposed continuously.

Like-named read-outs stand apart in the source and are kept apart here. Bounds are passed on as bounds.

One may read the IC50 as the midpoint of a concentration-inhibition curve.

For the compound “5-(3-hydroxypropylamino)-7-[(R,S)-(1-phenyl-2-hydroxyethyl)amino-3-isopropylpyrazolo[4,3-d]pyrimidine [Compound 172]”, the “Speed of apoptosis induction” value with KG1 cells is recorded as “fast”. Moreover, the IC50 in experiment [1] (96 hours, read-out: KG1 IC50) is 3 ± 1 µM; in experiment [1] (setting [3]), 7 ± 2 µM; in experiment [2], > 25 µM. Also, the “Recovery of cell number after wash-out” value in experiment [1] is recorded as “substantial recovery of cell number”.
With `CCCCCCNc1nc(NC(CO)c2ccccc2)c2[nH]nc(C(C)C)c2n1` (centres unmarked) [Compound 98, 5-(hexylamino)-7-(1-phenyl-2-hydroxyethylamino)-3-isopropylpyrazolo[4,3-d]pyrimidine], the IC50 was 5 ± 0.3 µM in experiment [1] (Homo sapiens, KG-1, 96 hours, read-out: KG1 IC50) and > 25 µM in experiment [2] (Homo sapiens, 336 h).
Turning to “5-(3-aminoethylamino)-7-(3,4-dihydroxybenzyl)amino-3-isopropylpyrazolo[4,3-d]pyrimidine [Compound 201]”, the “Incubation time after which apoptosis is detected” value in the experiment with KG1 cells (flow cytometry, cell line not given) came to 6 h. Moreover, in the experiment on KG1 cells, the “Speed of apoptosis induction” value is reported as “fast”. Moreover, the half-inhibitory concentration (IC50) in experiment [1] (96 hours, read-out: KG1 IC50) amounted to 12 ± 1.3 µM; in experiment [1] (setting [3]) it was 16 ± 1.3 µM; in experiment [2], 1.5 µM. Further, the “Recovery of cell number after wash-out” value in experiment [1] is “substantial recovery of cell number”.
On to “5-(methylthio)-7-[N-(3,4-dihydroxybenzyl-N-methyl]amino-3 isopropylpyrazolo[4,3-d]pyrimidine [Compound 26]”, for which the 50% inhibitory concentration (IC50) in experiment [1] (96 hours, read-out: KG1 IC50) came to 13 ± 0.2 µM. Besides, in experiment [2], the “Activity on pre-CFU compared with CFU” value is “more active on pre-CFU than on CFU” and the half-inhibitory concentration (IC50) came out at 86 µM.
Turning to “5-(3-aminopropylamino)-7-benzylamino-3-isopropylpyrazolo[4,3-d]pyrimidine [Compound 17]”, the IC50 in experiment [1] (96 hours, read-out: KG1 IC50) turned out to be 6 ± 1 µM; in experiment [1] (setting [3]), 16 ± 1.7 µM; in experiment [2], 10 µM. For the same compound, the “Recovery of cell number after wash-out” value in experiment [1] was “substantial recovery of cell number”.

(Values after US7745450B2, “Pyrazolo[4,3-d]pyrimidines, processes for their preparation and methods for therapy” (Institute of Experimental Botany, priority 2002, dated 2010).)
